The supplement of paper PMC10307832

Experiments:
Assay in all cases: relative viability (nuclei count vs DMSO), 5 days (fraction); higher = more cells survive
DM3189 = compound: C1CN(CCN1)C2=CC=C(C=C2)C3=CN4C(=C(C=N4)C5=CC=NC6=CC=CC=C56)N=C3 [DM3189]
Method in brief: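 Lung cancer cell lines received five library-drug doses (not always all listed) spaced by √10, pinned on vehicle-anchored 1536-well plates after an overnight stay at 37 °C. Five days later, with no medium change, nuclei were Hoechst-stained, imaged at 4× and counted with MetaXpress. Viability is treated-well nuclei relative to vehicle-well nuclei, as a median across plates. Passing plates had control CV below 25% and at least one doubling.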

DM3189 + Crizotinib = compound: C1CN(CCN1)C2=CC=C(C=C2)C3=CN4C(=C(C=N4)C5=CC=NC6=CC=CC=C56)N=C3 [DM3189] + C[C@@H](Oc1cc(-c2cnn(C3CCNCC3)c2)cnc1N)c1c(Cl)ccc(F)c1Cl [Crizotinib] (partner 1 µM)
Method in brief: (§1)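 Lung cancer cell lines were pin-tool dosed in 1536-well plates on the day after seeding, with either a lone drug or a fixed anchor-drug dose plus five library-drug doses (not always all listed) in √10 steps. Nuclei were counted on 4× images after 5 days. Relative viability is the ratio of treated-well to vehicle-well nuclei counts, with each value a median of duplicate plates.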

DM3189 + Olaparib = compound: C1CN(CCN1)C2=CC=C(C=C2)C3=CN4C(=C(C=N4)C5=CC=NC6=CC=CC=C56)N=C3 [DM3189] + O=C(c1cc(Cc2n[nH]c(=O)c3ccccc23)ccc1F)N1CCN(C(=O)C2CC2)CC1 [Olaparib] (partner 8 µM)
Method in brief: as §1

DM3189 + Alpelisib = compound: C1CN(CCN1)C2=CC=C(C=C2)C3=CN4C(=C(C=N4)C5=CC=NC6=CC=CC=C56)N=C3 [DM3189] + Cc1nc(NC(=O)N2CCC[C@H]2C(N)=O)sc1-c1ccnc(C(C)(C)C(F)(F)F)c1 [Alpelisib] (partner 2 µM)
Method in brief: as §1

DM3189 + Dasatinib = compound: C1CN(CCN1)C2=CC=C(C=C2)C3=CN4C(=C(C=N4)C5=CC=NC6=CC=CC=C56)N=C3 [DM3189] + Cc1nc(Nc2ncc(C(=O)Nc3c(C)cccc3Cl)s2)cc(N2CCN(CCO)CC2)n1 [Dasatinib] (partner 0.075 µM)
Method in brief: as §1

Cell Line | relative viability (DM3189; 0.08 µM) | relative viability (DM3189; 0.253 µM) | relative viability (DM3189; 0.8 µM) | relative viability (DM3189; 2.53 µM) | relative viability (DM3189 + Crizotinib; first compound 0.08 µM) | relative viability (DM3189 + Crizotinib; first compound 0.253 µM) | relative viability (DM3189 + Crizotinib; first compound 0.8 µM) | relative viability (DM3189 + Crizotinib; first compound 2.53 µM) | relative viability (DM3189 + Olaparib; first compound 0.08 µM) | relative viability (DM3189 + Olaparib; first compound 0.253 µM) | relative viability (DM3189 + Olaparib; first compound 0.8 µM) | relative viability (DM3189 + Olaparib; first compound 2.53 µM) | relative viability (DM3189 + Alpelisib; first compound 0.08 µM) | relative viability (DM3189 + Alpelisib; first compound 0.253 µM) | relative viability (DM3189 + Alpelisib; first compound 0.8 µM) | relative viability (DM3189 + Alpelisib; first compound 2.53 µM) | relative viability (DM3189 + Dasatinib; first compound 0.08 µM) | relative viability (DM3189 + Dasatinib; first compound 0.253 µM) | relative viability (DM3189 + Dasatinib; first compound 0.8 µM) | relative viability (DM3189 + Dasatinib; first compound 2.53 µM)
NCI-H23 | 1.13 | 0.805 | 0.804 | 0.842 | 0.545 | 0.491 | 0.442 | 0.579 | 0.253 | 0.305 | 0.233 | 0.294 | 0.768 | 0.741 | 0.675 | 0.699 | 0.878 | 0.713 | 0.716 | 0.749
NCI-H322M | 1.06 | 0.907 | 0.874 | 0.707 | 1.06 | 0.848 | 0.872 | 0.924 | 0.938 | 0.793 | 0.743 | 0.768 | 0.734 | 0.867 | 0.805 | 0.884 | 0.268 | 0.251 | 0.235 | 0.218
NCI-H358 | 1.01 | 0.869 | 0.843 | 0.913 | 0.516 | 0.56 | 0.504 | 0.509 | 0.7 | 0.539 | 0.56 | 0.395 | 0.851 | 0.83 | 0.779 | 0.492 | 0.177 | 0.166 | 0.17 | 0.163
NCI-H441 | 1.26 | 0.955 | 1.02 | 0.981 | 0.951 | 0.751 | 0.737 | 0.924 | 0.689 | 0.485 | 0.663 | 0.583 | 0.877 | 0.595 | 0.837 | 0.467 | 0.69 | 0.581 | 0.625 | 0.513
NCI-H460 | 1.01 | 0.949 | 0.855 | 1.12 | 0.839 | 0.939 | 0.96 | 1.02 | 0.449 | 0.415 | 0.325 | 0.619 | 0.507 | 0.567 | 0.44 | 0.184 | 0.728 | 0.532 | 0.47 | 0.666
NCI-H520 | 1.05 | 0.79 | 0.844 | 0.683 | 0.752 | 0.748 | 0.485 | 0.303 | 0.348 | 0.339 | 0.293 | 0.233 | 0.837 | 0.633 | 0.637 | 0.48 | 0.24 | 0.219 | 0.258 | 0.197
NCI-H596 | 1.13 | 0.85 | 1.05 | 0.996 | 1.15 | 1.01 | 0.93 | 0.943 | 0.588 | 0.646 | 0.702 | 0.747 | 0.578 | 0.517 | 0.386 | 0.478 | 0.747 | 0.71 | 0.497 | 0.609
NCI-H647 | 0.954 | 0.824 | 0.734 | 0.794 | 1.12 | 0.877 | 0.883 | 0.307 | 0.459 | 0.492 | 0.368 | 0.163 | 1.01 | 0.704 | 0.659 | 0.179 | 0.264 | 0.193 | 0.215 | 0.157
NCI-H650 | 1.09 | 0.848 | 0.877 | 0.965 | 0.754 | 0.575 | 0.594 | 0.661 | 0.355 | 0.428 | 0.347 | 0.329 | 1.35 | 1.07 | 0.975 | 0.915 | 0.558 | 0.509 | 0.5 | 0.408
NCI-H661 | 1.04 | 0.949 | 1.02 | 1.11 | 1 | 1.01 | 0.949 | 1.08 | 0.845 | 0.75 | 0.708 | 0.71 | 0.817 | 0.802 | 0.674 | 0.814 | 1.05 | 0.832 | 0.787 | 0.862
NCI-H727 | 1.02 | 0.815 | 0.735 | 0.986 | 0.889 | 0.821 |  | 0.737 | 0.696 | 0.69 | 0.649 | 0.764 | 0.638 | 0.503 |  | 0.56 | 0.364 | 0.336 |  | 0.299
NCI-H838 | 0.978 | 0.909 | 0.764 | 0.922 | 0.752 | 0.815 | 0.531 | 0.732 | 0.871 | 0.711 | 0.543 | 0.556 | 0.965 | 0.981 | 0.749 | 0.989 | 0.346 | 0.303 | 0.261 | 0.274
NCI-H1355 | 1.01 | 0.968 | 0.842 | 0.951 | 1.14 | 1.12 | 0.955 | 0.971 | 0.723 | 0.687 | 0.689 | 0.785 | 0.884 | 0.81 | 0.678 | 0.812 | 0.788 | 0.706 | 0.474 | 0.633
NCI-H1437 | 1.05 | 0.995 | 0.989 | 1 | 0.904 | 0.898 | 0.832 | 0.831 | 0.627 | 0.633 | 0.609 | 0.592 | 0.837 | 0.931 | 0.855 | 0.905 | 0.434 | 0.395 | 0.384 | 0.385
NCI-H1651 | 1.03 | 1.02 | 0.96 | 1.16 | 0.857 | 0.886 | 0.878 | 0.957 | 0.191 | 0.179 | 0.168 | 0.177 | 1.23 | 0.986 | 0.924 | 0.797 | 0.386 | 0.571 | 0.58 | 0.462
NCI-H1666 | 1.04 | 1.02 | 1.1 | 1.12 | 1.07 | 1.01 | 0.965 | 0.8 | 0.714 | 0.682 | 0.691 |  | 1.04 | 1.17 | 1.07 | 0.793 | 0.884 | 0.862 | 0.925 | 0.715
NCI-H1734 | 1.13 | 0.95 | 0.916 | 0.888 | 0.585 | 0.695 | 0.676 | 0.657 | 0.61 | 0.588 | 0.563 | 0.63 | 0.677 | 0.706 | 0.635 | 0.661 | 0.476 | 0.46 | 0.499 | 0.414
NCI-H1755 | 0.989 | 0.987 | 0.811 | 1.04 | 0.768 | 0.837 | 0.736 | 0.818 | 0.821 | 0.831 | 0.717 | 0.922 | 0.848 | 0.877 | 0.815 | 0.926 | 0.429 | 0.401 | 0.388 | 0.411
NCI-H1792 | 1.27 | 1 | 0.712 | 0.868 | 0.861 | 0.992 | 0.887 | 0.441 | 0.647 | 0.354 | 0.404 | 0.38 | 0.545 | 0.682 | 0.624 | 0.401 | 0.547 | 0.899 | 0.716 | 0.927
NCI-H1915 | 1.03 | 0.942 | 0.793 | 0.87 | 0.879 | 0.79 | 0.808 | 0.783 | 0.264 | 0.253 | 0.222 | 0.231 | 1.09 | 0.973 | 0.898 | 1.04 | 0.46 | 0.317 | 0.289 | 0.286
NCI-H1944 | 1.19 | 0.991 |  | 1.02 | 1.25 | 1 |  | 1.22 | 0.385 | 0.405 | 0.35 | 0.378 | 0.884 | 0.817 |  | 0.806 | 0.232 | 0.217 |  | 0.219
NCI-H1975 | 1.07 | 0.972 | 0.793 | 0.881 | 1.1 | 0.928 | 0.819 | 0.647 | 0.952 | 0.777 | 0.646 | 0.639 | 0.869 | 0.718 | 0.658 | 0.342 | 0.421 | 0.357 | 0.314 | 0.332
NCI-H1993 | 1.01 | 0.913 | 0.831 | 1.05 |  | 0.846 | 0.744 | 0.991 | 1.05 | 1.13 | 1.02 | 1.13 |  | 0.671 | 0.641 | 0.7 | 0.657 | 0.552 | 0.505 | 0.504
NCI-H2009 | 1.1 | 1.03 | 0.893 | 1.05 | 1.07 | 1.03 | 0.933 | 0.922 | 0.894 | 0.645 | 0.638 | 0.689 | 1.17 | 1.16 | 1.13 | 1.15 | 0.287 | 0.267 | 0.263 | 0.244
NCI-H2023 | 1 | 0.955 | 0.978 | 0.854 | 0.68 | 0.729 | 0.631 | 0.502 | 0.486 | 0.432 | 0.515 | 0.333 | 0.586 | 0.633 | 0.574 | 0.63 | 0.781 | 0.595 | 0.363 | 0.46
NCI-H2085 | 1 | 0.933 | 1.04 | 1.03 | 0.941 | 0.807 | 0.872 | 0.752 | 0.735 | 0.804 | 0.804 | 0.883 | 0.968 | 0.962 | 0.976 | 0.893 | 0.28 | 0.274 | 0.318 | 0.28
NCI-H2087 | 1.26 | 1.02 | 1.08 | 0.979 | 0.894 | 0.695 | 0.788 | 0.79 | 0.511 | 0.563 | 0.505 | 0.316 | 1.31 | 1.07 | 1.01 | 1.03 | 0.97 | 0.77 | 0.784 | 0.768
